Experimental data reported in patent US10494380B2, “Nitrogen-containing tricyclic derivatives having HIV replication inhibitory activity” (priority 2015, dated 2019).
Where two headings read alike, the source gives them in different places.

Assays:
HIV (HTLV-IIIB strain) = assay: HIV replication inhibition assay (Test Example 1; MT-4 cells, MTT); assay type: cell-based; details: HIV (HTLV-IIIB strain), MT-4 cells, MTT, four days; for EC50: read-out: EC50; for EC90: read-out: EC90
Procedure, shortened: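 MT-4 cells (2.5×10^4/well) were infected with HIV HTLV-IIIB (60 pfu) in the presence of compound and cultured 4 days at 37 °C. Cell viability was read by MTT reduction (OD 560/690 nm). EC50 and EC90 are the concentrations inhibiting virus-induced cytotoxicity by 50% and 90%.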

CYP3A4 = CYP3A4 (Homo sapiens (Human), UniProt P08684); assay: CYP3A4 (MDZ) MBI test (Test Example 6); details: pooled human liver microsomes, midazolam 1-hydroxylation, preincubation 0 or 30 min
HIV = assay type: cell-based; details: EC50 in the presence of human serum (25%) versus without human serum, MT-4 cells
Procedure, shortened: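 HIV-infected MT-4 cells (3×10^4/well, infected 1 h at 37° C) are grown 4 days with compound that was first mixed 1 h with human serum or with medium only. Potency shift is the EC50 with serum divided by the EC50 without serum.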

[1] = system: T125A mutant virus (HIV-1 NL-432 recombinant molecular clone, IN gene); assay: HIV replication inhibition assay against integrase 124/125 mutant virus (Test Example 2); assay type: cell-based
Procedure, shortened: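 EC50 is the compound concentration blocking half of virus-induced cell death, measured by MTT (OD 560 nm, 690 nm reference) after 4 days at 37 °C. Integrase 124/125 mutant NL-432 virus from transfected 293T cells (60 pfu) was added to 2.5×10^4 MT-4 cells with compound.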

CYP2C9 = CYP2C9 (Homo sapiens (Human), UniProt P11712); assay: CYP inhibition assay, tolbutamide methyl-hydroxylation (Test Example 4); assay type: in vitro ADME; details: pooled human hepatic microsome, 100 μmol/L tolbutamide, 15 minutes, 37° C.
Procedure: Using commercially available pooled human hepatic microsome, and employing, as markers, 7-ethoxyresorufin O-deethylation (CYP1A2), tolbutamide methyl-hydroxylation (CYP2C9), mephenytoin 4′-hydroxylation (CYP2C19), dextromethorphan O-demethylation (CYP2D6), and terfenadine hydroxylation (CYP3A4) as typical substrate metabolism reactions of human main five CYP enzyme forms (CYP1A2, 2C9, 2C19, 2D6, 3A4) an inhibitory degree of each metabolite production amount by a test compound was assessed.
The reaction conditions were as follows: substrate, 0.5 μmol/L ethoxyresorufin (CYP1A2), 100 μmol/L tolbutamide (CYP2C9), 50 μmol/L S-mephenytoin (CYP2C19), 5 μmol/L dextromethorphan (CYP2D6), 1 μmol/L terfenedine (CYP3A4); reaction time, 15 minutes; reaction temperature, 37° C.; enzyme, pooled human hepatic microsome 0.2 mg protein/mL; test drug concentration, 1, 5, 10, 20 μmol/L (four points).
Each five kinds of substrates, human hepatic microsome, and a test drug in 50 mmol/L Hepes buffer as a reaction solution was added to a 96-well plate as the composition ad described above, NADPH, as a coenzyme was added to initiate metabolism reactions as markers and, after the incubation at 37° C. for 15 minutes, a methanol/acetonitrile=1/1 (V/V) solution was added to stop the reaction. After the centrifugation at 3000 rpm for 15 minutes, resorufin (CYP1A2 metabolite) in the supernatant was quantified by a fluorescent multilabel counter and tolbutamide hydroxide (CYP2C9 metabolite), mephenytoin 4′ hydroxide (CYP2C19 metabolite), dextrorphan (CYP2D6 metabolite), and terfenadine alcohol (CYP3A4 metabolite) were quantified by LC/MS/MS.

[2] = system: sheep red blood cells (RBC); assay: Photohemolysis test (Test Example 13); assay type: cell-based; details: 0.0008 to 0.1 w/v %, 10 J/cm2 UV-irradiation (290-400 nm)
Source text: Aliquots of sheep red blood cells (RBC) suspension prepared with medium to make a 2.5 v/v % concentration are dispensed into microplates. The compound of the present invention was desolved with a vehicle to make target concentrations and then these solutions were immediately added (in concentrations of 0.0008 to 0.1 w/v %) into the microplates. The mixtures on the microplates were exposed to 10 J/cm2 of UV-irradiation (UV-A and UV-B, 290-400 nm) with a GL20SE lamp (SANKYO DENKI) and a FL20S-BLB lamp (Panasonic). After the UV-irradiation, the mixtures were centrifuged. Aliquots of supernatant were transferred to a microplate. Absorbance of the supernatants was measured at 540 nm and 630 nm for judgement of the potential of phototoxicity. In the study, two endpoints were evaluated in biomembrane impairment (% of photohemolysis index; PI) and hyperoxidation of lipid membrane (methemoglobin formation; met-Hb) with the absorbance at 540 nm and 630 nm, respectively. PI and met-Hb were assessed based on the negative criteria (−), PI<10% and changes in absorbance at 630 nm<0.05, respectively. All else was judged as positive (+).

[3] = Human immunodeficiency virus 1, MT4, 96 h
[4] = Human immunodeficiency virus 1, MT4, read-out: EC50 against T125A mutant virus, T125A mutant virus (HIV-1 NL-432 IN gene), MT-4 cells, MTT
[5] = T125A mutant virus (HIV-1 NL-432 IN gene), MT-4 cells, MTT, read-out: EC50 against T125A mutant virus

Sequence of CYP2C9 (P11712 whole entry): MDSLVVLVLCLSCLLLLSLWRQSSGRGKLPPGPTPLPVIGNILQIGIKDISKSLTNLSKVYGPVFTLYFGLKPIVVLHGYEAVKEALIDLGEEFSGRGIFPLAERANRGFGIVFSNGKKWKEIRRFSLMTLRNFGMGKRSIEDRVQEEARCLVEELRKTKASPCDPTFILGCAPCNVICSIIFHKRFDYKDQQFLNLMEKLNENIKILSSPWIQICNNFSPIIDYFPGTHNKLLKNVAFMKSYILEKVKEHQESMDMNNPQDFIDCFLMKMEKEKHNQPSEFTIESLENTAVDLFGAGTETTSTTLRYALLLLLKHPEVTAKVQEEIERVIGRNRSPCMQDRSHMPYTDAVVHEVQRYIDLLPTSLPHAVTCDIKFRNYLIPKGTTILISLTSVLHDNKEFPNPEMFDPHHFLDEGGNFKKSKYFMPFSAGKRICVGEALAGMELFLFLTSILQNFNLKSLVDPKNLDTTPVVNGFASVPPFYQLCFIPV
Sequence of CYP3A4 (P08684 whole entry): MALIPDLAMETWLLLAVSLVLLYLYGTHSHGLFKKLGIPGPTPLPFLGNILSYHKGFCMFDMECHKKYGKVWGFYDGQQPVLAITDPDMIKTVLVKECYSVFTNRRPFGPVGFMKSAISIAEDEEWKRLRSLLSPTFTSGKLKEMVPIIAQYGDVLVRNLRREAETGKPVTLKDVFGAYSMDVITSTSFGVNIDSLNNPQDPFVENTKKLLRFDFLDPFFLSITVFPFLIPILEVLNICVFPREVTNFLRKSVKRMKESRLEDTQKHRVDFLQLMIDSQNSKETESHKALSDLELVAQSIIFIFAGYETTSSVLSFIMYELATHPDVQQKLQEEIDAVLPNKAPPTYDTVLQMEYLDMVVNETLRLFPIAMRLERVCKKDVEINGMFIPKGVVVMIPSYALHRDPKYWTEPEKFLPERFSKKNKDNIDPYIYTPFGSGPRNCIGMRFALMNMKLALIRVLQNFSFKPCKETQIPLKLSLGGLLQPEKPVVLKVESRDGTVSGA

Row | SMILES | EC50 (HIV (HTLV-IIIB strain); [3]) | EC90 (HIV (HTLV-IIIB strain); [3]) | CYP3A4 (MDZ) MBI, shifted IC (CYP3A4) | Potency shift value (HIV) | EC50 [1, 4] | IC50 (CYP2C9) | Photohemolysis test, potential of phototoxicity (PI and met-Hb) [2] | EC50 (HIV (HTLV-IIIB strain)) | EC90 (HIV (HTLV-IIIB strain)) | EC50 [1, 5]
1 | Cc1c([C@H](OC(C)(C)C)C(=O)O)c(-c2ccc(Cl)cc2)c2cc(C)n3c2c1N(c1ncc(OCCN(C)C)cn1)CC3 [Compound I-244] | 4.8 nM | 8 nM | (−) (When a shifted IC was 1.0 or less, this was defined as negative) | 3.4 | 12 nM | > 20 µM | (−) (negative criteria (−), PI<10% and changes in absorbance at 630 nm<0.05, respectively) |  |  | 
2 | Cc1c([C@H](OC(C)(C)C)C(=O)O)c(-c2ccc(Cl)cc2)c2cc(C)n3c2c1N(c1ncc(OCCCN(C)C)cn1)CC3 [Compound I-257] | 7.4 nM | 8.1 nM | (−) (When a shifted IC was 1.0 or less, this was defined as negative) | 4 | 28 nM | > 20 µM | (−) (negative criteria (−), PI<10% and changes in absorbance at 630 nm<0.05, respectively) |  |  | 
3 | Cc1c([C@H](OC(C)(C)C)C(=O)O)c(-c2ccc(Cl)cc2)c2cc(C)n3c2c1N(c1ncc(OCC2COC2)cn1)CC3 [Compound I-258] | 2.1 nM | 2.9 nM | (−) (When a shifted IC was 1.0 or less, this was defined as negative) | 11 | 4.9 nM | > 20 µM | (−) (negative criteria (−), PI<10% and changes in absorbance at 630 nm<0.05, respectively) |  |  | 
4 | [2H]C([2H])([2H])Oc1cnc(N2CCn3c(C)cc4c(-c5ccc(Cl)cc5)c([C@H](OC(C)(C)C)C(=O)O)c(C)c2c43)nc1 [Compound I-260] | 1.1 nM | 1.5 nM | (−) (When a shifted IC was 1.0 or less, this was defined as negative) | 15 | 3.6 nM | > 20 µM | (−) (negative criteria (−), PI<10% and changes in absorbance at 630 nm<0.05, respectively) |  |  | 
5 | Cc1ccc(N2CCn3c(C)cc4c(-c5ccc(Cl)cc5)c([C@H](OC(C)(C)C)C(=O)O)c(C)c2c43)nn1 [Compound I-262] | 3.2 nM | 5.1 nM | (−) (When a shifted IC was 1.0 or less, this was defined as negative) | 13 | 5 nM | > 20 µM | (−) (negative criteria (−), PI<10% and changes in absorbance at 630 nm<0.05, respectively) |  |  | 
6 | Cc1ccc(-c2c([C@H](OC(C)(C)C)C(=O)O)c(C)c3c4c2cc(C)n4CCN3c2ncc(OCCCN(C)C)cn2)cc1 [Compound I-267] | 11 nM | 18 nM | (−) (When a shifted IC was 1.0 or less, this was defined as negative) | 4 | 26 nM | > 20 µM | (−) (negative criteria (−), PI<10% and changes in absorbance at 630 nm<0.05, respectively) |  |  | 
7 | Cc1ccc(-c2c([C@H](OC(C)(C)C)C(=O)O)c(C)c3c4c2cc(C)n4CCN3c2ncc(O[C@H]3CCN(C)C3)cn2)cc1 [Compound I-270] | 4.5 nM | 7.5 nM | (−) (When a shifted IC was 1.0 or less, this was defined as negative) | 3.8 | 13 nM | > 20 µM | (−) (negative criteria (−), PI<10% and changes in absorbance at 630 nm<0.05, respectively) |  |  | 
8 | Cc1ccc(-c2c([C@H](OC(C)(C)C)C(=O)O)c(C)c3c4c2cc(C)n4CCN3c2ncc(OC3CCN(C)CC3)cn2)cc1 [Compound I-278] | 5.5 nM | 11 nM | (−) (When a shifted IC was 1.0 or less, this was defined as negative) | 3.6 | 13 nM | > 20 µM | (−) (negative criteria (−), PI<10% and changes in absorbance at 630 nm<0.05, respectively) |  |  | 
9 | Cc1ccc(-c2c([C@H](OC(C)(C)C)C(=O)O)c(C)c3c4c2cc(C)n4CCN3c2nc3c(s2)CCN(C)C3)cc1 [Compound I-292] | 2.5 nM | 5.1 nM | (−) (When a shifted IC was 1.0 or less, this was defined as negative) | 4.5 | 6.3 nM | > 20 µM | (−) (negative criteria (−), PI<10% and changes in absorbance at 630 nm<0.05, respectively) |  |  | 
10 | Cc1ccc(-c2c([C@H](OC(C)(C)C)C(=O)O)c(C)c3c4c2cc(C)n4CCN3c2nc3c(s2)CN(C)CC3)cc1 [Compound I-293] | 3.1 nM | 5.5 nM | (−) (When a shifted IC was 1.0 or less, this was defined as negative) | 4.8 | 9.3 nM | > 20 µM | (−) (negative criteria (−), PI<10% and changes in absorbance at 630 nm<0.05, respectively) |  |  | 
11 | Cc1ccc(-c2c([C@H](OC(C)(C)C)C(=O)O)c(C)c3c4c2cc(C)n4CCN3c2ccc(N3CCCC3=O)nn2)cc1 [Compound I-303] |  |  | (−) (When a shifted IC was 1.0 or less, this was defined as negative) | 15 |  | > 20 µM | (−) (negative criteria (−), PI<10% and changes in absorbance at 630 nm<0.05, respectively) | 1.5 nM | 4 nM | 4.3 nM
12 | Cc1ccc(-c2c([C@H](OC(C)(C)C)C(=O)O)c(C)c3c4c2cc(C)n4CCN3c2ncc(CN(C)C)cn2)cc1 [Compound I-304] |  |  | (−) (When a shifted IC was 1.0 or less, this was defined as negative) | 6.8 |  | > 20 µM | (−) (negative criteria (−), PI<10% and changes in absorbance at 630 nm<0.05, respectively) | 4.1 nM |  | 7.2 nM
13 | Cc1ccc(-c2c([C@H](OC(C)(C)C)C(=O)O)c(C)c3c4c2cc(C)n4CCN3c2ncc(CCN3CCCCC3)cn2)cc1 [Compound I-305] |  |  | (−) (When a shifted IC was 1.0 or less, this was defined as negative) | 3.6 |  | > 20 µM | (−) (negative criteria (−), PI<10% and changes in absorbance at 630 nm<0.05, respectively) | 3.7 nM | 4.9 nM | 12 nM
